Measured values published in publication PMC12388506, “Preclinical Evaluation of 2-Aminobenzothiazole Derivatives: In Silico, In Vitro, and Preliminary In Vivo Studies as Diabetic Treatments and Their Complications” (Molecules, 2025).

How the values were obtained:
male Wistar rat = assay: Acute oral toxicity, Up and Down procedure (OECD 425); type: in vivo; design: Heart weight / IWA (initial weight of animals) / FWA (final weight of animals) / Spleen weight / Liver weight / Intestine weight / Stomach weight / Kidney weight: unit not given here; conditions: for FWA (final weight of animals): after 14 days; for Heart weight / Intestine weight / Kidney weight / Liver weight / Spleen weight / Stomach weight: necropsy; for toxicity category (OECD): maximum dose 1250 mg/Kg oral
Experimental: All synthesized compounds (8c, 8d, and 12d as a racemic mixture) were suspended in 2% Tween 80 in water and administered orally by an esophageal cannula following the “Up and Down” methodology. Nevertheless, compounds could not be solubilized in the desired volume to complete the highest dose (1750 mg/Kg), so the toxicity test was performed with a maximum dose of 1250 mg/Kg. Even so, the values obtained indicate that these compounds are classified within toxicity category 4 according to the guidelines established by the Organization for Economic Co-operation and Development (OECD).
The “Up and Down” procedure of OECD Guideline 425 was used to estimate the LD50 value of synthesized compounds. Briefly, a dose of 175 mg/Kg was administered to a male Wistar rat, which was monitored continuously for 48 h. As the animal survived, a second animal received a dose of 550 mg/Kg, and, as it survived, a third animal received an increasing dose of 1750 mg/Kg. Finally, two other rats were administered the same dose. All animals were kept under observation for 14 days, and 24 h later, they were taken to the humane endpoint for macroscopic examination of organs and tissues. Finally, the LD50 value of the compounds was estimated to determine their degree of toxicity and classified based on the GHS of Classification and Labeling of Chemicals.

ALR2 enzyme [1] = target: T1, ALR2 enzyme (Homo sapiens, UniProt P15121); assay: ALR2 activity assay kit (ab273276), inhibition; type: biochemical;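 on relative ALR2 inhibition: inhibition calculated from the rate of NADPH cofactor consumption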
T1 construct: purchased ab273276
Experimental: The obtained dose–response curve had concentrations of 10 μM, 5 μM, 500 nM, 50 nM, and 5 nM.

FRAP assay = assay: FRAP assay
Experimental: (§1) All synthesized compounds were evaluated at 30 μM, 50 μM, 70 μM, 90 μM, and 110 μM under two of the most widely used methods in research to directly measure the antioxidant and anti-radical intrinsic capacity, FRAP, and ABTS assay, which were validated by a dose–response curve of 5-ASA as a reference. In the same way, these tests were carried out in triplicate using an assay kit (from Pharmaceutical and Biotechnological Innovation-Services) according to the manufacturer’s instructions.

ALR2 enzyme [2] = target: T1, ALR2 enzyme; assay: ALR2 activity assay kit (ab273276), inhibition; type: biochemical; conditions: Inhibitor concentration
ABTS assay = assay: ABTS assay
Experimental: as §1

[3] = Inhibitor concentration 5000 nm
[4] = Inhibitor concentration 10000 nm

CNC(=O)C(Cc1ccccc1)N/C(=N\c1nc2ccccc2s1)SC (racemic) [12d, Methyl (RS, E)-N’-(benzo[d]thiazol-2-yl)-N-(1-(methylamino)-1-oxo-3-phenylpropan-2-yl)carbamimidothioate]
FWA (final weight of animals) (male Wistar rat; 1250 mg/Kg oral, mean ± SEM): 309.67 ± 4.67 | IWA (initial weight of animals) (male Wistar rat; 1250 mg/Kg oral, mean ± SEM): 208.47 ± 6.47 | Heart weight (male Wistar rat; 1250 mg/Kg oral, mean ± SEM): 1.23 ±0.13 | Intestine weight (male Wistar rat; 1250 mg/Kg oral, mean ± SEM): 29.10 ± 0.50 | Kidney weight (male Wistar rat; 1250 mg/Kg oral, mean ± SEM): 2.87 ± 0.067 | Liver weight (male Wistar rat; 1250 mg/Kg oral, mean ± SEM): 19.33 ± 0.03 | Spleen weight (male Wistar rat; 1250 mg/Kg oral, mean ± SEM): 0.83 ± 0.03 | Stomach weight (male Wistar rat; 1250 mg/Kg oral, mean ± SEM): 1.53 ± 0.07 | toxicity category (OECD) (male Wistar rat): 4 | relative ALR2 inhibition (ALR2 enzyme [1]; Inhibitor concentration 5 nm): 29.534% | relative ALR2 inhibition (ALR2 enzyme [1]; Inhibitor concentration 50 nm): 32.532% | relative ALR2 inhibition (ALR2 enzyme [1]; Inhibitor concentration 500 nm): 33.993% | relative ALR2 inhibition (ALR2 enzyme [1]; [3]): 48.448% | relative ALR2 inhibition (ALR2 enzyme [1]; [4]): 86.455% | Percentage reduction of ferric ion to ferrous ion (FRAP) (FRAP assay; 30 µM): 0.19% | Percentage reduction of ferric ion to ferrous ion (FRAP) (FRAP assay; 50 µM): 0.20% | Percentage reduction of ferric ion to ferrous ion (FRAP) (FRAP assay; 70 µM): 0.18% | Percentage reduction of ferric ion to ferrous ion (FRAP) (FRAP assay; 90 µM): 0.20% | relative ALR2 inhibition (ALR2 enzyme [2]): 32.814% | Percentage reduction of radical cation ABTS (ABTS assay; 30 µM): -3.4% | Percentage reduction of radical cation ABTS (ABTS assay; 50 µM): -3.7% | Percentage reduction of radical cation ABTS (ABTS assay; 70 µM): -2.3% | Percentage reduction of radical cation ABTS (ABTS assay; 90 µM): -3.1% | Percentage reduction of radical cation ABTS (ABTS assay; 110 µM): -1.9%

COC(=O)[C@@H](N/C(=N\c1nc2ccccc2s1)SC)c1ccccc1 [8c, Methyl (S,E)-2-(((benzo[d]thiazol-2-ylimino)(methylthio)methyl)amino)-2-phenylacetate]
FWA (final weight of animals) (male Wistar rat; 1250 mg/Kg oral, mean ± SEM): 204.37 ± 1.47 | Heart weight (male Wistar rat; 1250 mg/Kg oral, mean ± SEM): 1.07 ± 0.17 | Intestine weight (male Wistar rat; 1250 mg/Kg oral, mean ± SEM): 30.20 ± 1.50 | Kidney weight (male Wistar rat; 1250 mg/Kg oral, mean ± SEM): 2.57 ± 0.27 | Liver weight (male Wistar rat; 1250 mg/Kg oral, mean ± SEM): 18.87 ± 1.47 | Spleen weight (male Wistar rat; 1250 mg/Kg oral, mean ± SEM): 0.73 ± 0.03 | Stomach weight (male Wistar rat; 1250 mg/Kg oral, mean ± SEM): 1.57 ± 0.07 | toxicity category (OECD) (male Wistar rat): 4 | concentrations at which ALR2 was inhibited (ALR2 enzyme [1]): below 10 µM | concentration dependence of ALR2 inhibition (IC50 not calculable) (ALR2 enzyme [1]; 10 μM to 5 nM): did not show a concentration-dependent response | relative ALR2 inhibition (ALR2 enzyme [1]; Inhibitor concentration 5 nm): 82.945% | relative ALR2 inhibition (ALR2 enzyme [1]; Inhibitor concentration 50 nm): 85.158% | relative ALR2 inhibition (ALR2 enzyme [1]; Inhibitor concentration 500 nm): 68.371% | relative ALR2 inhibition (ALR2 enzyme [1]; [3]): 53.000% | Percentage reduction of ferric ion to ferrous ion (FRAP) (FRAP assay; 30 µM): 13.2% | Percentage reduction of ferric ion to ferrous ion (FRAP) (FRAP assay; 50 µM): 14.4% | Percentage reduction of ferric ion to ferrous ion (FRAP) (FRAP assay; 70 µM): 15.5% | Percentage reduction of ferric ion to ferrous ion (FRAP) (FRAP assay; 90 µM): 19.6% | Percentage reduction of ferric ion to ferrous ion (FRAP) (FRAP assay; 110 µM): 20.2% | relative ALR2 inhibition (ALR2 enzyme [2]): 90.000% | Percentage reduction of radical cation ABTS (ABTS assay; 30 µM): -3.5% | Percentage reduction of radical cation ABTS (ABTS assay; 50 µM): -3.9% | Percentage reduction of radical cation ABTS (ABTS assay; 70 µM): -3.8% | Percentage reduction of radical cation ABTS (ABTS assay; 90 µM): -2.9% | Percentage reduction of radical cation ABTS (ABTS assay; 110 µM): -2.8%

CC(/C=C1\SC(=S)N(CC(=O)O)C1=O)=C\c1ccccc1 [Epa, epalrestat, reference compound]
relative ALR2 inhibition (ALR2 enzyme [1]; Inhibitor concentration 5 nm): 5.000% | relative ALR2 inhibition (ALR2 enzyme [1]; Inhibitor concentration 50 nm): 5.288% | relative ALR2 inhibition (ALR2 enzyme [1]; Inhibitor concentration 500 nm): 12.513% | relative ALR2 inhibition (ALR2 enzyme [1]; [3]): 58.372% | relative ALR2 inhibition (ALR2 enzyme [1]; [4]): 100.000% | relative ALR2 inhibition (ALR2 enzyme [2]): 3.000%
